From the supplement of paper PMC10307832

Tests used:
Assay in all cases: relative viability (nuclei count vs DMSO), 5 days (fraction); higher = more cells survive
Palbociclib + Crizotinib = compound: CC(=O)c1c(C)c2cnc(Nc3ccc(N4CCNCC4)cn3)nc2n(C2CCCC2)c1=O [Palbociclib] + C[C@@H](Oc1cc(-c2cnn(C3CCNCC3)c2)cnc1N)c1c(Cl)ccc(F)c1Cl [Crizotinib] (partner 1 µM)
Procedure, shortened: (§1)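 Lung cancer cell lines, seeded in 1536-well plates, were treated the following day by pin tool with a single drug or with five library-drug doses (not always all listed) in √10 steps on top of a fixed anchor-drug dose. Cells were fixed and nuclei stained in one step after 5 days, and nuclei were counted. Relative viability is the nuclei count for treated wells divided by that for vehicle wells, reported as medians of duplicate plates.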

Palbociclib + Trametinib = compound: CC(=O)c1c(C)c2cnc(Nc3ccc(N4CCNCC4)cn3)nc2n(C2CCCC2)c1=O [Palbociclib] + CC(=O)Nc1cccc(-n2c(=O)n(C3CC3)c(=O)c3c(Nc4ccc(I)cc4F)n(C)c(=O)c(C)c32)c1 [Trametinib] (partner 0.02 µM)
Procedure, shortened: as §1

Palbociclib + Tozasertib = compound: CC(=O)c1c(C)c2cnc(Nc3ccc(N4CCNCC4)cn3)nc2n(C2CCCC2)c1=O [Palbociclib] + Cc1cc(Nc2cc(N3CCN(C)CC3)nc(Sc3ccc(NC(=O)C4CC4)cc3)n2)n[nH]1 [Tozasertib] (partner 0.1 µM)
Procedure, shortened: as §1

Palbociclib + AZD7762 = compound: CC(=O)c1c(C)c2cnc(Nc3ccc(N4CCNCC4)cn3)nc2n(C2CCCC2)c1=O [Palbociclib] + NC(=O)Nc1cc(-c2cccc(F)c2)sc1C(=O)N[C@H]1CCCNC1 [AZD7762] (partner 0.2 µM)
Procedure, shortened: as §1

| Cell Line | relative viability (Palbociclib + Crizotinib; first compound 0.01 µM) | relative viability (Palbociclib + Crizotinib; first compound 0.03162 µM) | relative viability (Palbociclib + Crizotinib; first compound 0.1 µM) | relative viability (Palbociclib + Crizotinib; first compound 0.3162 µM) | relative viability (Palbociclib + Crizotinib; first compound 1 µM) | relative viability (Palbociclib + Trametinib; first compound 0.01 µM) | relative viability (Palbociclib + Trametinib; first compound 0.03162 µM) | relative viability (Palbociclib + Trametinib; first compound 0.1 µM) | relative viability (Palbociclib + Trametinib; first compound 0.3162 µM) | relative viability (Palbociclib + Trametinib; first compound 1 µM) | relative viability (Palbociclib + Tozasertib; first compound 0.01 µM) | relative viability (Palbociclib + Tozasertib; first compound 0.03162 µM) | relative viability (Palbociclib + Tozasertib; first compound 0.1 µM) | relative viability (Palbociclib + Tozasertib; first compound 0.3162 µM) | relative viability (Palbociclib + Tozasertib; first compound 1 µM) | relative viability (Palbociclib + AZD7762; first compound 0.01 µM) | relative viability (Palbociclib + AZD7762; first compound 0.03162 µM) | relative viability (Palbociclib + AZD7762; first compound 0.1 µM) | relative viability (Palbociclib + AZD7762; first compound 0.3162 µM) | relative viability (Palbociclib + AZD7762; first compound 1 µM) |
| --- | --- | --- | --- | --- | --- | --- | --- | --- | --- | --- | --- | --- | --- | --- | --- | --- | --- | --- | --- | --- |
| NCI-H1563 | 0.852 | 0.832 | 0.813 | 0.759 | 0.67 | – | – | – | – | – | – | – | – | – | – | – | – | – | – | – |
| NCI-H2009 | 1.02 | 0.913 | 0.838 | 0.695 | 0.331 | 0.307 | 0.296 | 0.194 | 0.223 | 0.141 | 0.739 | 0.729 | 0.625 | 0.479 | 0.346 | – | – | – | – | – |
| NCI-H1793 | – | – | – | – | – | 0.438 | 0.431 | 0.44 | 0.322 | 0.281 | 0.358 | – | 0.318 | 0.339 | 0.276 | 0.518 | 0.393 | 0.549 | 0.528 | 0.277 |
| SW 900 | – | – | – | – | – | 0.828 | – | 1.12 | 0.616 | 0.509 | 0.557 | – | 0.461 | 0.417 | 0.506 | 0.67 | – | 0.641 | 0.644 | 0.46 |
| A549 | 0.776 | 0.65 | 0.472 | 0.362 | 0.29 | – | – | – | – | – | – | – | – | – | – | – | – | – | – | – |
| NCI-H1299 | 0.938 | 0.895 | 0.86 | 0.7 | 0.631 | – | – | – | – | – | – | – | – | – | – | – | – | – | – | – |
| Calu-6 | 0.867 | 0.68 | 0.662 | 0.551 | 0.451 | – | – | – | – | – | – | – | – | – | – | – | – | – | – | – |
| NCI-H520 | 0.748 | 0.551 | 0.648 | 0.641 | 0.337 | 0.84 | 0.574 | 0.561 | 0.541 | 0.245 | 0.445 | 0.424 | 0.238 | 0.329 | 0.249 | – | – | – | – | – |
| NCI-H1792 | 0.972 | 0.897 | 0.906 | 0.868 | 0.634 | 0.501 | 0.376 | 0.323 | 0.338 | 0.213 | – | – | – | – | – | 0.663 | 0.559 | 0.462 | 0.576 | 0.185 |
| NCI-H2023 | 0.568 | 0.58 | 0.49 | 0.367 | 0.272 | 0.655 | 0.408 | 0.477 | 0.464 | 0.326 | 0.377 | 0.31 | 0.314 | 0.297 | 0.292 | – | – | – | – | – |
| NCI-H661 | 0.957 | 0.779 | 0.674 | 0.694 | 0.556 | 0.536 | 0.5 | 0.423 | 0.477 | 0.336 | 0.332 | 0.346 | 0.324 | 0.302 | 0.3 | – | – | – | – | – |
| IA-LM | 0.748 | 0.505 | 0.373 | 0.138 | 0.0793 | – | – | – | – | – | – | – | – | – | – | – | – | – | – | – |
